# Test results taken from ChEMBL document CHEMBL3217590, “Discovery of a new class of dithiocarbamates and rhodanine scaffolds as potent antifungal agents: synthesis, biology and molecular docking” (Medchemcomm, 2012).
# What was measured:
# [1] = test system: Sporothrix schenckii; experiment: Antifungal activity against Sporothrix schenckii after 72 to 96 hrs by broth microdilution technique; assay type: functional
# [2] = test system: Candida albicans; experiment: Anticandidal activity against Candida albicans ATCC-MYA 2950 after 24 to 48 hrs by broth microdilution technique; assay type: functional
# [3] = test system: L929; experiment: Cytotoxicity against mouse L929 cells assessed as decline in cell survival at 12.5 to 50 ug/ml after 24 hrs by spectrophotometric analysis; assay type: cell-based; details: l929, 24 h
# [4] = test system: Candida albicans; experiment: Anticandidal activity against Candida albicans MTCC183 after 24 to 48 hrs by broth microdilution technique; assay type: functional
# [5] = test system: L929; experiment: Cytotoxicity against mouse L929 cells assessed as morphological changes up to 3.12 ug/ml after 24 hrs by giemsa staining based phase contrast microscopy; assay type: cell-based; details: l929, 24 h
# [6] = test system: Candida albicans; experiment: Anticandidal activity against Candida albicans ATCC10231 after 24 to 48 hrs by broth microdilution technique; assay type: functional
# [7] = test system: Candida albicans; experiment: Antifungal activity against Candida albicans after 24 to 48 hrs by broth microdilution technique; assay type: functional
# [8] = test system: Candida albicans; experiment: Anticandidal activity against Candida albicans ATCC14053 after 24 to 48 hrs by broth microdilution technique; assay type: functional
# [9] = test system: Candida albicans; experiment: Anticandidal activity against amphotericin-B resistant Candida albicans after 24 to 48 hrs by broth microdilution technique; assay type: functional
# [10] = test system: Trichophyton mentagrophytes; experiment: Antifungal activity against Trichophyton mentagrophytes after 72 to 96 hrs by broth microdilution technique; assay type: functional
# [11] = test system: Candida albicans; experiment: Anticandidal activity against Candida albicans CDRI after 24 to 48 hrs by broth microdilution technique; assay type: functional
# [12] = test system: Candida parapsilosis; experiment: Antifungal activity against Candida parapsilosis ATCC22019 after 24 to 48 hrs by broth microdilution technique; assay type: functional; details: Lodderomyces parapsilosis
# [13] = test system: Candida albicans; experiment: Anticandidal activity against Candida albicans isolated from patient after 24 to 48 hrs by broth microdilution technique; assay type: functional
# [14] = test system: Sporothrix schenckii; experiment: Ratio of clotrimazole MIC to compound MIC against Sporothrix schenckii after 72 to 96 hrs by broth microdilution technique; assay type: functional
# [15] = test system: Candida albicans; experiment: Anticandidal activity against Candida albicans ATCC750 after 24 to 48 hrs by broth microdilution technique; assay type: functional
# [16] = test system: Cryptococcus neoformans; experiment: Antifungal activity against Cryptococcus neoformans after 24 to 48 hrs by broth microdilution technique; assay type: functional
# [17] = test system: Aspergillus fumigatus; experiment: Antifungal activity against Aspergillus fumigatus after 72 to 96 hrs by broth microdilution technique; assay type: functional
# [18] = test system: Candida albicans; experiment: Ratio of fluconazole MIC to compound MIC against amphotericin-B resistant Candida albicans after 24 to 48 hrs by broth microdilution technique; assay type: functional
# [19] = test system: Sporothrix schenckii; experiment: Ratio of fluconazole MIC to compound MIC against Sporothrix schenckii after 72 to 96 hrs by broth microdilution technique; assay type: functional
Compound,MIC [1],MIC [2],Activity [3],MIC [4],Activity [5],MIC [6],MIC [7],MIC [8],MIC [9],MIC [10],MIC [11],MIC [12],MIC [13],Ratio [14],MIC [15],MIC [16],MIC [17],Ratio [18],Ratio [19]
CCCSC(=S)NCc1ccncc1,0.39 µg/mL,12.5 µg/mL,Toxic,1.56 µg/mL,Non-toxic,6.25 µg/mL,6.25 µg/mL,6.25 µg/mL,3.12 µg/mL,3.12 µg/mL,6.25 µg/mL,12.5 µg/mL,12.5 µg/mL,12,12.5 µg/mL,12.5 µg/mL,50 µg/mL,2,12
C=CCSC(=S)NCc1ccncc1,0.39 µg/mL,1.56 µg/mL,Toxic,0.78 µg/mL,Non-toxic,1.56 µg/mL,1.56 µg/mL,0.78 µg/mL,6.25 µg/mL,3.12 µg/mL,1.56 µg/mL,1.56 µg/mL,1.56 µg/mL,12,3.12 µg/mL,3.12 µg/mL,25 µg/mL,1,12
O=C1CSC(=S)N1Cc1ccncc1,1.56 µg/mL,6.25 µg/mL,Toxic,0.78 µg/mL,Non-toxic,6.25 µg/mL,1.56 µg/mL,1.56 µg/mL,3.12 µg/mL,3.12 µg/mL,6.25 µg/mL,6.25 µg/mL,6.25 µg/mL,,6.25 µg/mL,6.25 µg/mL,12.5 µg/mL,2,
O=C1/C(=C/c2ccc(F)cc2)SC(=S)N1Cc1ccncc1,0.39 µg/mL,,Toxic,,Non-toxic,,12.5 µg/mL,,,3.12 µg/mL,,25 µg/mL,,12,,25 µg/mL,> 50 µg/mL,,12
O=C1/C(=C/c2ccncc2)SC(=S)N1Cc1ccncc1,3.12 µg/mL,1.56 µg/mL,Toxic,0.78 µg/mL,Non-toxic,1.56 µg/mL,1.56 µg/mL,6.25 µg/mL,3.12 µg/mL,3.12 µg/mL,3.12 µg/mL,1.56 µg/mL,3.12 µg/mL,,6.25 µg/mL,1.56 µg/mL,25 µg/mL,2,
